Assay results reported in patent publication US6737383B1, “Herbicidal oxadiazolidines” (priority 1999, dated 2004).

Columns and labels:
blackgrass = test: Test B pre/postemergence blackgrass; type: in vivo, Alopecurus myosuroides
Procedure, shortened: (§1)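 Test chemicals in a non-phytotoxic solvent mixture with surfactant were sprayed preemergence onto planted seeds and postemergence onto plants 2 to 18 cm tall (1- to 4-leaf stage). After twelve to sixteen days in a greenhouse, injury was visually rated against untreated controls from 0 (no effect) to 10 (complete control).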

giant foxtail = test: Test B pre/postemergence giant foxtail; type: in vivo, Setaria faberii
Procedure, shortened: as §1

soybean = test: Test B pre/postemergence soybean; type: in vivo, Glycine max
Procedure, shortened: as §1

morningglory = test: Test B pre/postemergence morningglory; type: in vivo, Ipomoea hederacea
Procedure, shortened: as §1

surinam grass = test: Test B pre/postemergence surinam grass; type: in vivo, Brachiaria decumbens
Procedure, shortened: as §1

pigweed = test: Test B pre/postemergence pigweed; type: in vivo, Amaranthus retroflexus
Procedure, shortened: as §1

bedstraw = test: Test B pre/postemergence bedstraw; type: in vivo, Galium aparine
Procedure, shortened: as §1

sugar beet = test: Test B pre/postemergence sugar beet; type: in vivo, Beta vulgaris
Procedure, shortened: as §1

rice = test: Test B flood test rice; type: in vivo, Oryza sativa
Procedure, shortened: (§2)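 Plants were grown to the 2-leaf stage before treatment with test chemical, then held in a greenhouse for twelve to sixteen days. Injury was visually rated against untreated controls on a 0–10 scale, where 0 is no effect and 10 is complete control.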

corn = test: Test B pre/postemergence corn; type: in vivo, Zea mays
Procedure, shortened: as §1

cocklebur = test: Test B pre/postemergence cocklebur; type: in vivo, Xanthium strumarium
Procedure, shortened: as §1

wild oat = test: Test B pre/postemergence wild oat; type: in vivo, Avena fatua
Procedure, shortened: as §1

duck salad = test: Test B flood test duck salad; type: in vivo, Heteranthera limosa
Procedure, shortened: as §2

crabgrass = test: Test B pre/postemergence crabgrass; type: in vivo, Digitaria sanguinalis
Procedure, shortened: as §1

smallflower flatsedge = test: Test B flood test smallflower flatsedge; type: in vivo, Cyperus difformis
Procedure, shortened: as §2

purple nutsedge = test: Test B pre/postemergence purple nutsedge; type: in vivo, Cyperus rotundus
Procedure, shortened: as §1

[1] = Preemergence, Rate 62 g/ha, scale of 0 to 10 where 0 is no effect and 10 is complete control
[2] = Preemergence, Rate 250 g/ha, scale of 0 to 10 where 0 is no effect and 10 is complete control
[3] = Preemergence, Rate 500 g/ha, scale of 0 to 10 where 0 is no effect and 10 is complete control
[4] = Rate 62 g/ha, Postemergence, scale of 0 to 10 where 0 is no effect and 10 is complete control
[5] = Rate 125 g/ha, Postemergence, scale of 0 to 10 where 0 is no effect and 10 is complete control
[6] = Rate 125 g/ha, Preemergence, scale of 0 to 10 where 0 is no effect and 10 is complete control
[7] = Rate 250 g/ha, Postemergence, scale of 0 to 10 where 0 is no effect and 10 is complete control
[8] = Rate 500 g/ha, Postemergence, scale 0 to 10, 0 no effect, 10 complete control
[9] = Rate 62 g/ha, headed Pre-emergence (flood test species), scale 0 to 10 (0 no effect, 10 complete control)
[10] = Rate 125 g/ha, Pre-emergence, flood test species, scale 0 to 10 where 0 is no effect and 10 is complete control
[11] = Rate 250 g/ha, Pre-emergence, flood-test species, scale 0 to 10, 0 is no effect, 10 is complete control
[12] = Rate 500 g/ha, Pre-emergence, flood test species, scale 0 to 10 (0 no effect, 10 complete control)

SMILES: CC(C)N(C(=O)n1oc(=O)n(-c2ccsc2)c1=O)c1ccc(F)cc1 [Compound 272]
- Blackgrass plant response rating (blackgrass; [1]): 0
- Blackgrass plant response rating (blackgrass; [2]): 0
- Plant response rating, Blackgrass (blackgrass; [3]): 0
- Blackgrass plant response rating (blackgrass; [4]): 0
- Blackgrass plant response rating (blackgrass; [5]): 0
- Blackgrass plant response rating (blackgrass; [6]): 0
- Plant response rating, Blackgrass (blackgrass; [7]): 2
- Blackgrass plant response rating (blackgrass; [8]): 6
- Giant foxtail plant response rating (giant foxtail; [1]): 2
- Giant foxtail plant response rating (giant foxtail; [2]): 6
- Plant response rating, Giant foxtail (giant foxtail; [3]): 6
- Giant foxtail plant response rating (giant foxtail; [5]): 0
- Giant foxtail plant response rating (giant foxtail; [6]): 5
- Plant response rating, Giant foxtail (giant foxtail; [7]): 0
- Giant foxtail plant response rating (giant foxtail; [8]): 0
- Soybean plant response rating (soybean; [1]): 0
- Soybean plant response rating (soybean; [2]): 0
- Plant response rating, Soybean (soybean; [3]): 0
- Soybean plant response rating (soybean; [5]): 1
- Soybean plant response rating (soybean; [6]): 0
- Plant response rating, Soybean (soybean; [7]): 1
- Soybean plant response rating (soybean; [8]): 1
- Morningglory plant response rating (morningglory; [1]): 0
- Morningglory plant response rating (morningglory; [2]): 0
- Plant response rating, Morningglory (morningglory; [3]): 0
- Morningglory plant response rating (morningglory; [5]): 1
- Morningglory plant response rating (morningglory; [6]): 0
- Plant response rating, Morningglory (morningglory; [7]): 1
- Morningglory plant response rating (morningglory; [8]): 7
- B. signalgrass plant response rating (surinam grass; [1]): 0
- B. signalgrass plant response rating (surinam grass; [2]): 0
- Plant response rating, B. signalgrass (surinam grass; [3]): 0
- B. signalgrass plant response rating (surinam grass; [4]): 0
- B. signalgrass plant response rating (surinam grass; [5]): 0
- B. signalgrass plant response rating (surinam grass; [6]): 0
- Plant response rating, B. signalgrass (surinam grass; [7]): 0
- B. signalgrass plant response rating (surinam grass; [8]): 0
- Redroot pigweed plant response rating (pigweed; [1]): 0
- Redroot pigweed plant response rating (pigweed; [2]): 0
- Plant response rating, Redroot pigweed (pigweed; [3]): 3
- Redroot pigweed plant response rating (pigweed; [5]): 0
- Redroot pigweed plant response rating (pigweed; [6]): 0
- Plant response rating, Redroot pigweed (pigweed; [7]): 2
- Redroot pigweed plant response rating (pigweed; [8]): 4
- Bedstraw plant response rating (bedstraw; [1]): 0
- Bedstraw plant response rating (bedstraw; [2]): 0
- Plant response rating, Bedstraw (bedstraw; [3]): 3
- Bedstraw plant response rating (bedstraw; [4]): 0
- Bedstraw plant response rating (bedstraw; [5]): 0
- Bedstraw plant response rating (bedstraw; [6]): 0
- Plant response rating, Bedstraw (bedstraw; [7]): 0
- Bedstraw plant response rating (bedstraw; [8]): 4
- Sugarbeets plant response rating (sugar beet; [1]): 0
- Sugarbeets plant response rating (sugar beet; [2]): 0
- Plant response rating, Sugarbeets (sugar beet; [3]): 0
- Sugarbeets plant response rating (sugar beet; [5]): 0
- Sugarbeets plant response rating (sugar beet; [6]): 0
- Plant response rating, Sugarbeets (sugar beet; [7]): 0
- Sugarbeets plant response rating (sugar beet; [8]): 0
- Rice plant response rating (rice; [9]): 0
- Rice plant response rating (rice; [10]): 0
- Rice plant response rating (rice; [11]): 0
- Rice plant response rating (rice; [12]): 0
- Corn plant response rating (corn; [1]): 0
- Corn plant response rating (corn; [2]): 0
- Plant response rating, Corn (corn; [3]): 0
- Corn plant response rating (corn; [4]): 0
- Corn plant response rating (corn; [5]): 0
- Corn plant response rating (corn; [6]): 0
- Plant response rating, Corn (corn; [7]): 0
- Corn plant response rating (corn; [8]): 0
- Cocklebur plant response rating (cocklebur; [1]): 0
- Cocklebur plant response rating (cocklebur; [2]): 0
- Plant response rating, Cocklebur (cocklebur; [3]): 0
- Cocklebur plant response rating (cocklebur; [4]): 0
- Cocklebur plant response rating (cocklebur; [5]): 0
- Cocklebur plant response rating (cocklebur; [6]): 0
- Plant response rating, Cocklebur (cocklebur; [7]): 1
- Cocklebur plant response rating (cocklebur; [8]): 1
- Wild oats plant response rating (wild oat; [1]): 0
- Wild oats plant response rating (wild oat; [2]): 0
- Plant response rating, Wild oats (wild oat; [3]): 2
- Wild oats plant response rating (wild oat; [5]): 0
- Plant response rating, Wild oats (wild oat; [7]): 0
- Wild oats plant response rating (wild oat; [8]): 0
- Ducksalad plant response rating (duck salad; [9]): 0
- Ducksalad plant response rating (duck salad; [10]): 0
- Ducksalad plant response rating (duck salad; [11]): 0
- Ducksalad plant response rating (duck salad; [12]): 0
- Crabgrass plant response rating (crabgrass; [1]): 0
- Crabgrass plant response rating (crabgrass; [2]): 0
- Plant response rating, Crabgrass (crabgrass; [3]): 2
- Crabgrass plant response rating (crabgrass; [5]): 0
- Crabgrass plant response rating (crabgrass; [6]): 0
- Plant response rating, Crabgrass (crabgrass; [7]): 0
- Crabgrass plant response rating (crabgrass; [8]): 0
- S. Flatsedge plant response rating (smallflower flatsedge; [9]): 0
- S. Flatsedge plant response rating (smallflower flatsedge; [10]): 0
- S. Flatsedge plant response rating (smallflower flatsedge; [11]): 0
- S. Flatsedge plant response rating (smallflower flatsedge; [12]): 0
- Nutsedge plant response rating (purple nutsedge; [1]): 0
- Nutsedge plant response rating (purple nutsedge; [2]): 0
- Plant response rating, Nutsedge (purple nutsedge; [3]): 0
- Nutsedge plant response rating (purple nutsedge; [5]): 0
- Nutsedge plant response rating (purple nutsedge; [6]): 0
- Plant response rating, Nutsedge (purple nutsedge; [7]): 0
- Nutsedge plant response rating (purple nutsedge; [8]): 0
